# Assay results taken from PubChem BioAssay (NCI).
#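 In this assay, cells in 96-well plates receive the compound at five concentrations for 48 hours. Endpoints are linearly interpolated between the surrounding concentrations. At the GI50, growth is halved. TGI: total growth inhibition.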
# What was measured:
# Test in all cases: inhibition of tumour cell growth, NCI panel, 48 h
# 786-0 renal = tested on: 786-0 renal
# A549 NSCLC = tested on: A549 NSCLC
# BT-549 breast = tested on: BT-549 breast
# HCT-15 colon = tested on: HCT-15 colon
# MCF7 breast = tested on: MCF7 breast
# SNB-19 CNS = tested on: SNB-19 CNS
# T-47D breast = tested on: T-47D breast
# TK-10 renal = tested on: TK-10 renal
# UACC-257 melanoma = tested on: UACC-257 melanoma
# SF-539 CNS = tested on: SF-539 CNS
smiles,measurement,setting,value
CCCCC/C=C1/CC(CO)(COC(=O)CC(C(C)C)C(C)C)OC1=O (stereo not given),TGI,786-0 renal,22.3 µM
same,TGI,A549 NSCLC,27.1 µM
same,TGI,BT-549 breast,28.5 µM
same,TGI,HCT-15 colon,33.6 µM
same,TGI,MCF7 breast,31.8 µM
same,TGI,SNB-19 CNS,21.2 µM
same,TGI,T-47D breast,40.5 µM
same,TGI,TK-10 renal,32.5 µM
same,TGI,UACC-257 melanoma,47.4 µM
O=[N+]([O-])C(/C(Cl)=C(/Cl)N1CCOCC1)=C1\NCCO1,TGI,786-0 renal,> 100 µM
same,TGI,A549 NSCLC,> 100 µM
same,TGI,BT-549 breast,> 100 µM
same,TGI,HCT-15 colon,> 100 µM
same,TGI,MCF7 breast,> 100 µM
same,TGI,SF-539 CNS,> 100 µM
same,TGI,SNB-19 CNS,> 100 µM
same,TGI,T-47D breast,> 100 µM
same,TGI,UACC-257 melanoma,> 100 µM
CCCC(Sc1nc(N)nc2nc[nH]c12)C(=O)O (stereo not given),TGI,786-0 renal,> 100 µM
same,TGI,A549 NSCLC,> 100 µM
same,TGI,BT-549 breast,> 100 µM
same,TGI,HCT-15 colon,> 100 µM
same,TGI,MCF7 breast,> 100 µM
same,TGI,SNB-19 CNS,> 100 µM
same,TGI,T-47D breast,> 100 µM
same,TGI,TK-10 renal,88 µM
same,TGI,UACC-257 melanoma,> 100 µM
Cn1ccnc1CCc1ccc(F)cc1F,TGI,786-0 renal,> 100 µM
same,TGI,A549 NSCLC,> 100 µM
same,TGI,BT-549 breast,> 100 µM
same,TGI,HCT-15 colon,> 100 µM
same,TGI,MCF7 breast,> 100 µM
same,TGI,SF-539 CNS,> 100 µM
same,TGI,SNB-19 CNS,> 100 µM
same,TGI,T-47D breast,> 100 µM
same,TGI,TK-10 renal,> 100 µM
Cc1oc2nc1C(=O)NCc1nc(cs1)C(=O)N[C@H](C(C)C)c1nc(cs1)C(=O)N[C@H]2C,TGI,786-0 renal,> 100 µM
same,TGI,A549 NSCLC,> 100 µM
same,TGI,BT-549 breast,> 100 µM
same,TGI,HCT-15 colon,> 100 µM
same,TGI,MCF7 breast,> 100 µM
same,TGI,SF-539 CNS,> 100 µM
same,TGI,SNB-19 CNS,> 100 µM
same,TGI,T-47D breast,> 100 µM
same,TGI,UACC-257 melanoma,> 100 µM
CCNC(=S)N/N=C/c1cc(OC)ccc1O,TGI,786-0 renal,> 100 µM
same,TGI,A549 NSCLC,> 100 µM
same,TGI,HCT-15 colon,> 100 µM
same,TGI,MCF7 breast,> 100 µM
same,TGI,SF-539 CNS,> 100 µM
same,TGI,SNB-19 CNS,> 100 µM
same,TGI,T-47D breast,> 100 µM
same,TGI,TK-10 renal,> 100 µM
same,TGI,UACC-257 melanoma,> 100 µM
C=Nc1ccc([N+](=O)[O-])cc1,TGI,786-0 renal,> 100 µM
same,TGI,A549 NSCLC,> 100 µM
same,TGI,HCT-15 colon,> 100 µM
same,TGI,SF-539 CNS,> 100 µM
same,TGI,SNB-19 CNS,> 100 µM
same,TGI,TK-10 renal,> 100 µM
same,TGI,UACC-257 melanoma,> 100 µM
CN(C)CCCn1c(Cc2ccccc2)nc2cc(C(F)(F)F)ccc21,TGI,786-0 renal,33.9 µM
same,TGI,A549 NSCLC,31.8 µM
same,TGI,BT-549 breast,92.4 µM
same,TGI,HCT-15 colon,69.6 µM
same,TGI,MCF7 breast,39.3 µM
same,TGI,SNB-19 CNS,86.9 µM
same,TGI,T-47D breast,50.7 µM
same,TGI,TK-10 renal,98.4 µM
same,TGI,UACC-257 melanoma,34.2 µM
O=[N+]([O-])c1ccc2c(c1)nc(Cc1ccccc1)n2C[C@@H]1CCCN2CCCCC12 (stereo not given in full),TGI,786-0 renal,47.6 µM
same,TGI,A549 NSCLC,> 100 µM
same,TGI,BT-549 breast,> 100 µM
same,TGI,HCT-15 colon,> 100 µM
same,TGI,MCF7 breast,> 100 µM
same,TGI,SNB-19 CNS,> 100 µM
same,TGI,T-47D breast,> 100 µM
same,TGI,TK-10 renal,> 100 µM
same,TGI,UACC-257 melanoma,31.4 µM
Cc1cn(C2CC(O)C(CO)C2C)c(=O)[nH]c1=O (stereo not given),TGI,A549 NSCLC,> 100 µM
same,TGI,HCT-15 colon,> 100 µM
same,TGI,SF-539 CNS,> 100 µM
same,TGI,SNB-19 CNS,> 100 µM
same,TGI,UACC-257 melanoma,> 100 µM
CCN1CCN(C(=O)[C@]23CC[C@@H](C)[C@H](C)[C@@H]2C2=CC[C@@H]4[C@@]5(C)C/C(=C/c6cccnc6)C(=O)C(C)(C)[C@@H]5CC[C@@]4(C)[C@]2(C)CC3)CC1,GI50,A549 NSCLC,3.15 µM
same,TGI,A549 NSCLC,16.8 µM
same,GI50,HCT-15 colon,1.66 µM
same,TGI,HCT-15 colon,3.26 µM
same,GI50,MCF7 breast,1.64 µM
same,TGI,MCF7 breast,3.42 µM
same,GI50,SF-539 CNS,1.66 µM
same,TGI,SF-539 CNS,3.05 µM
same,GI50,SNB-19 CNS,1.79 µM
same,TGI,SNB-19 CNS,3.74 µM
same,GI50,T-47D breast,2.79 µM
same,TGI,T-47D breast,13.4 µM
same,GI50,TK-10 renal,2.87 µM
same,TGI,TK-10 renal,9.4 µM
same,GI50,UACC-257 melanoma,2.21 µM
same,TGI,UACC-257 melanoma,5.95 µM
Cc1ccc(S(=O)(=O)NC(=O)NC(Cc2c[nH]c3ccccc23)C(=O)O)cc1 (stereo not given),TGI,786-0 renal,> 100 µM
same,TGI,A549 NSCLC,> 100 µM
same,TGI,BT-549 breast,> 100 µM
same,TGI,HCT-15 colon,> 100 µM
same,TGI,SF-539 CNS,> 100 µM
same,TGI,SNB-19 CNS,> 100 µM
same,TGI,T-47D breast,> 100 µM
same,TGI,TK-10 renal,> 100 µM
same,TGI,UACC-257 melanoma,> 100 µM
CC1CN=C(Nc2cccc(C(F)(F)F)c2)S1 (stereo not given),TGI,BT-549 breast,> 100 µM
same,TGI,HCT-15 colon,> 100 µM
same,TGI,MCF7 breast,> 100 µM
same,TGI,SF-539 CNS,> 100 µM
same,TGI,SNB-19 CNS,> 100 µM
same,TGI,T-47D breast,> 100 µM
same,TGI,TK-10 renal,> 100 µM
same,TGI,UACC-257 melanoma,> 100 µM
COc1ccc2c(c1)OCC1(O)Cc3ccccc3OC21 (stereo not given),TGI,786-0 renal,> 100 µM
same,TGI,A549 NSCLC,> 100 µM
same,TGI,BT-549 breast,> 100 µM
same,TGI,HCT-15 colon,> 100 µM
same,TGI,MCF7 breast,> 100 µM
same,TGI,SF-539 CNS,> 100 µM
same,TGI,T-47D breast,> 100 µM
same,TGI,TK-10 renal,> 100 µM
same,TGI,UACC-257 melanoma,> 100 µM
CN(C)N=Nc1ccc([N+](=O)[O-])cc1C(N)=O,TGI,A549 NSCLC,> 100 µM
same,TGI,HCT-15 colon,> 100 µM
same,TGI,MCF7 breast,> 100 µM
same,TGI,SF-539 CNS,> 100 µM
same,TGI,SNB-19 CNS,> 100 µM
same,TGI,UACC-257 melanoma,> 100 µM
Cc1cccc2c1C(=O)C1(Cc3ccccc3C1=O)C2 (stereo not given),TGI,786-0 renal,> 100 µM
same,TGI,A549 NSCLC,> 100 µM
same,TGI,HCT-15 colon,> 100 µM
same,TGI,MCF7 breast,> 100 µM
same,TGI,SF-539 CNS,> 100 µM
same,TGI,SNB-19 CNS,> 100 µM
same,TGI,T-47D breast,> 100 µM
same,TGI,TK-10 renal,> 100 µM
same,TGI,UACC-257 melanoma,> 100 µM
COc1c(-c2cc(C)c(Cl)c(=O)[nH]2)c(O)c(OC)c2occc12,TGI,786-0 renal,> 100 µM
same,TGI,A549 NSCLC,> 100 µM
same,TGI,HCT-15 colon,> 100 µM
same,TGI,MCF7 breast,> 100 µM
same,TGI,SF-539 CNS,> 100 µM
same,TGI,SNB-19 CNS,> 100 µM
same,TGI,T-47D breast,> 100 µM
same,TGI,TK-10 renal,> 100 µM
same,TGI,UACC-257 melanoma,> 100 µM
C=CCOc1ccc(C2c3c([nH][nH]c3=O)CC(O)(OCC)C2C(=O)OCC)cc1OC (stereo not given),TGI,786-0 renal,> 100 µM
same,TGI,A549 NSCLC,> 100 µM
same,TGI,HCT-15 colon,> 100 µM
same,TGI,MCF7 breast,> 100 µM
same,TGI,SF-539 CNS,> 100 µM
same,TGI,SNB-19 CNS,> 100 µM
same,TGI,T-47D breast,> 100 µM
same,TGI,TK-10 renal,> 100 µM
same,TGI,UACC-257 melanoma,> 100 µM
CSC1=Nc2ccccc2-c2nc(-c3ccccc3)cc(-c3ccccc3)c2C1,TGI,786-0 renal,26 µM
same,TGI,A549 NSCLC,> 100 µM
same,TGI,BT-549 breast,> 100 µM
same,TGI,HCT-15 colon,> 100 µM
same,TGI,SF-539 CNS,> 100 µM
same,TGI,SNB-19 CNS,> 100 µM
same,TGI,T-47D breast,76.4 µM
same,TGI,TK-10 renal,36.8 µM
same,TGI,UACC-257 melanoma,> 100 µM
CCOC(=O)c1ccc(-c2cc(C)[nH]n2)[nH]1,TGI,786-0 renal,> 100 µM
same,TGI,A549 NSCLC,> 100 µM
same,TGI,BT-549 breast,> 100 µM
same,TGI,HCT-15 colon,> 100 µM
same,TGI,SF-539 CNS,> 100 µM
same,TGI,SNB-19 CNS,> 100 µM
same,TGI,T-47D breast,> 100 µM
same,TGI,TK-10 renal,> 100 µM
same,TGI,UACC-257 melanoma,> 100 µM
C[C@]12CC[C@H]3[C@@H](CCC4=CC(=O)C=C[C@@]43O)[C@@H]1CCC2=O,TGI,786-0 renal,> 100 µM
same,TGI,A549 NSCLC,> 100 µM
same,TGI,BT-549 breast,> 100 µM
same,TGI,HCT-15 colon,> 100 µM
same,TGI,MCF7 breast,> 100 µM
same,TGI,SF-539 CNS,> 100 µM
same,TGI,SNB-19 CNS,> 100 µM
same,TGI,T-47D breast,> 100 µM
same,TGI,UACC-257 melanoma,> 100 µM
N/C(=N\N=C\c1ccc2c(c1)OCO2)NO,TGI,786-0 renal,37.7 µM
same,TGI,A549 NSCLC,> 100 µM
same,TGI,HCT-15 colon,> 100 µM
same,TGI,MCF7 breast,> 100 µM
same,TGI,SF-539 CNS,56.5 µM
same,TGI,SNB-19 CNS,> 100 µM
same,TGI,T-47D breast,> 100 µM
same,TGI,TK-10 renal,> 100 µM
same,TGI,UACC-257 melanoma,> 100 µM
CC(=O)Nc1ccc(S(=O)(=O)Nc2nnc(S(N)(=O)=O)s2)cc1,TGI,786-0 renal,> 100 µM
same,TGI,A549 NSCLC,> 100 µM
same,TGI,BT-549 breast,> 100 µM
same,TGI,HCT-15 colon,> 100 µM
same,TGI,MCF7 breast,> 100 µM
same,TGI,SF-539 CNS,> 100 µM
same,TGI,SNB-19 CNS,> 100 µM
same,TGI,T-47D breast,> 100 µM
same,TGI,TK-10 renal,> 100 µM
CO/C(=N\N=C\c1ccc(Cl)cc1)c1ccncc1,TGI,A549 NSCLC,> 100 µM
same,TGI,HCT-15 colon,> 100 µM
same,TGI,SF-539 CNS,> 100 µM
same,TGI,SNB-19 CNS,> 100 µM
same,TGI,TK-10 renal,> 100 µM
same,TGI,UACC-257 melanoma,> 100 µM
